Patent US9370526B2, “Combination hormone replacement therapy (HRT) and melatonin to prevent and treat mammary cancer” (Duquesne University of the Holy Spirit, priority 2009, dated 2016)

What was measured:
[1] = system: MMTV-neu mice (neu oncogene, mimics HER2+ breast cancer); assay: Mammary tumor onset (latency) and incidence in MMTV-neu mice given oral HRT diet and/or nocturnal melatonin in drinking water; type: in vivo
Text: (§1) We studied the effects of the present combination therapy as follows. We chose a mouse model, MMTV-neu mice, which express the neu oncogene that mimics HER2+ breast cancer. In a population of mice, both melatonin and HRT were given orally to correlate with the dosage method in women, basing the dosing on diet based on the calories an average woman consumes daily, namely, 1800 kcal, but adjusting for the small size and metabolism of the mice. Estrogen+progestin HRT contained the bioidentical hormones 17β-estradiol (E2) at the currently recommended dosage for women (0.5 mg/1800 kcal) and progesterone (P4) at half of the recommended dose (50 mg/1800 kcal). For example, the daily mouse dose would be less than 500 mcg progesterone (P4). Melatonin was provided in the drinking water at a concentration of 15 mg/L (dose equivalent to a 5 mg tablet for women) only during the night to supplement the normal nocturnal surge in endogenous melatonin. Using drinking water rather than food to administer melatonin allowed the mice continual access to the control and HRT diets, instead of just during the night (dark cycle).
Referring now to FIG. 1, survival curves are shown which represent the age of primary mammary tumor onset in weeks, on the x axis, and percent mammary tumor incidence on the y axis. FIG. 1a represents age of primary mammary tumor onset and incidence between control (C/V) vs. melatonin (C/M) groups, with C signifying no hormone administration, V signifying no melatonin administration, and M signifying melatonin administration. FIG. 1b represents control vs. HRT (HRT/V) groups, with C signifying no hormone administration, V signifying no melatonin administration, and with HRT signifying Hormone Replacement Therapy (in FIG. 1b, without melatonin, or “V”). FIG. 1c represents the results of HRT/V versus HRT/M administration (M=melatonin) and FIG. 1d represents the results of CN versus HRT/M administration. […] No change in body weight occurred as a result of the treatments. […] FIG. 1c represents HRT vs. HRT plus melatonin; FIG. 1d represents control versus HRT plus melatonin.

[2] = system: mammary tumors in MMTV-neu mice; assay: Mammary tumor growth and progression (tumor weight, volume, metastatic incidence), same study; type: in vivo; settings: compared to control animals (FIG. 2)
Text: as §1

[3] = system: RNA expression in the lower mammary gland; assay: RNA expression in the lower mammary gland by microarray analysis; type: in vivo, mice
Procedure: FIG. 3 reports aggregated data regarding thousands of RNA fragments tested for over- or under-expression of more than one and one-half times more or less expression than in control, for mice treated with C/C (no hormone, no melatonin control), C/M (no hormone/melatonin), EMP/C (estrogen/mid progesterone (that is, half the recommended dose of progesterone, or 50 mg (P4)) but no melatonin) and EMP/M (estrogen/mid progesterone (that is, half the recommended dose of progesterone, or 50 mg (P4)) and melatonin).

COc1ccc2[nH]cc(CCNC(C)=O)c2c1 [melatonin]
incidence of mammary cancer, in words ([1]; compared to control animals): did not modify
latency of mammary cancer (age of primary tumor onset), in words ([1]; compared to control animals): did not modify
incidence of mammary cancer (animals with tumor/animals in group) ([1]; control 44/57): 42/57
incidence of mammary cancer ([1]; control 77%): 74%
tumor volume [2]: significant decrease
tumor weight [2]: significant decrease
RNA expression changes (upregulation and downregulation), in words [3]: limited number of RNA expression changes
